# From patent US20120196766A1, “Therapeutic Use of Farnesyltransferase Inhibitors and Methods of Monitoring the Efficacy Thereof” (priority 2004, published 2012)
# Tested on: THP-1 cells
# Experiment: cDNA microarray analysis of LPS-induced gene transcription in THP-1 cells
# Type: cell-based, Human
# Conditions: LPS 100 ng/ml, tipifarnib 5 μM
# Protocol: THP-1 cells were cultured in RPMI1640 medium, supplemented with 10% FBS/100 units/ml Penicillin/10 μg/ml Streptomycin at 37° C., under 5% CO2. […] For the untreated control group (no LPS, no compound) and LPS alone group, equivalent volumes of DMSO were added to the medium. Cells were cultured at 37° C. and pellets were collected at 0 hr, 1 hr, 3 hr, 6 hr, 12 hr & 24 hr. Cell pellets were stored at −80° C. if RNA isolation was not conducted immediately. For experiments to study cytokine secretion in culture supernatants, THP-1 cells were washed twice with PBS, resuspended at 3.4×10^5/ml and cultured in 96-well plates at 250 μL, per well at 37° C. […] Supernatants were collected at different time points as indicated in the figures and were kept at ≦−20° C. until analysis of cytokine production.
# Total RNA was isolated using RNeasy mini kit from QIAGEN (Valencia, Calif.) according to the manufacturer's instructions. RNA samples were stored at −80° C.
# Five μg of total RNA was linearly amplified to double-stranded cDNA using T7-based amplification. The cDNA was purified using the QIAquick 96 PCR purification kit (QIAGEN Valencia, Calif.), and used to generate amplified (a) RNA using AmpliScribe™ T7 High Yield Transcription Kit (Epicentre, Madison, Wis.). Ten μg of purified aRNA was reverse transcribed to cDNA using the SuperScript RTII kit (Invitrogen) and labeled by direct incorporation of Cy3-dCTP. The generated cDNA probe was used for hybridizing to cDNA microarrays.
# Each clone was spotted in duplicate on the array.
smiles,measurement,setting,value
"Cn1cncc1C(N)(c1ccc(Cl)cc1)c1ccc2c(c1)c(-c1cccc(Cl)c1)cc(=O)n2C (single isomer, unassigned; (+)) [tipifarnib, (+)-6-[amino(4-chlorophenyl)(1-methyl-1H-imidazol-5-yl)methyl]-4-(3-chlorophenyl)-1-methyl-2(1H)-quinolinone]",Fold-change (tipifarnib/LPS vs LPS) ABCB8,1 hr,1.07
same,Fold-change (tipifarnib/LPS vs LPS) B2M,1 hr,1.15
same,Fold-change (tipifarnib/LPS vs LPS) C3AR1,1 hr,1.00
same,Fold-change (tipifarnib/LPS vs LPS) CCL2,1 hr,−1.07
same,Fold-change (tipifarnib/LPS vs LPS) CCL3,1 hr,−1.07
same,Fold-change (tipifarnib/LPS vs LPS) CCL4,1 hr,1.07
same,Fold-change (tipifarnib/LPS vs LPS) CCL8,1 hr,−1.07
same,Fold-change (tipifarnib/LPS vs LPS) CCND1,1 hr,1.00
same,Fold-change (tipifarnib/LPS vs LPS) CXCL11,1 hr,1.00
same,Fold-change (tipifarnib/LPS vs LPS) GNPNAT1,1 hr,1.00
same,Fold-change (tipifarnib/LPS vs LPS) IER3,1 hr,1.32
same,Fold-change (tipifarnib/LPS vs LPS) IFI16,1 hr,1.07
same,Fold-change (tipifarnib/LPS vs LPS) IFIT1,1 hr,1.00
same,Fold-change (tipifarnib/LPS vs LPS) IFNB1,1 hr,−1.23
same,Fold-change (tipifarnib/LPS vs LPS) IGFBP3,1 hr,1.00
same,Fold-change (tipifarnib/LPS vs LPS) IL1B,1 hr,1.07
same,Fold-change (tipifarnib/LPS vs LPS) IL1RN,1 hr,−1.15
same,Fold-change (tipifarnib/LPS vs LPS) IL8,1 hr,−1.07
same,Fold-change (tipifarnib/LPS vs LPS) KCNK17,1 hr,−1.07
same,Fold-change (tipifarnib/LPS vs LPS) LAP3,1 hr,−1.07
same,Fold-change (tipifarnib/LPS vs LPS) LGR7,1 hr,1.23
same,Fold-change (tipifarnib/LPS vs LPS) MMP9,1 hr,−1.07
same,Fold-change (tipifarnib/LPS vs LPS) MX1,1 hr,1.00
same,Fold-change (tipifarnib/LPS vs LPS) MYD88,1 hr,1.07
same,Fold-change (tipifarnib/LPS vs LPS) NEXN,1 hr,1.00
same,Fold-change (tipifarnib/LPS vs LPS) NFKB2,1 hr,−1.07
same,Fold-change (tipifarnib/LPS vs LPS) PLAUR,1 hr,1.00
same,Fold-change (tipifarnib/LPS vs LPS) PTX3,1 hr,1.15
same,Fold-change (tipifarnib/LPS vs LPS) S100A9,1 hr,1.00
same,Fold-change (tipifarnib/LPS vs LPS) STAT1,1 hr,1.23
same,Fold-change (tipifarnib/LPS vs LPS) TAP1,1 hr,−1.23
same,Fold-change (tipifarnib/LPS vs LPS) TAP2,1 hr,1.07
same,Fold-change (tipifarnib/LPS vs LPS) TRIM22,1 hr,1.00
same,Fold-change (tipifarnib/LPS vs LPS) UBE2L6,1 hr,1.00
same,Fold-change (tipifarnib/LPS vs LPS) ABCB8,3 hr,1.00
same,Fold-change (tipifarnib/LPS vs LPS) B2M,3 hr,1.00
same,Fold-change (tipifarnib/LPS vs LPS) C3AR1,3 hr,1.07
same,Fold-change (tipifarnib/LPS vs LPS) CCL2,3 hr,−1.32
same,Fold-change (tipifarnib/LPS vs LPS) CCL3,3 hr,1.00
same,Fold-change (tipifarnib/LPS vs LPS) CCL8,3 hr,1.00
same,Fold-change (tipifarnib/LPS vs LPS) CCND1,3 hr,−1.07
same,Fold-change (tipifarnib/LPS vs LPS) CXCL11,3 hr,−1.07
same,Fold-change (tipifarnib/LPS vs LPS) GNPNAT1,3 hr,1.00
same,Fold-change (tipifarnib/LPS vs LPS) IFI16,3 hr,1.00
same,Fold-change (tipifarnib/LPS vs LPS) IFIT1,3 hr,1.00
same,Fold-change (tipifarnib/LPS vs LPS) IFNB1,3 hr,−1.15
same,Fold-change (tipifarnib/LPS vs LPS) IGFBP3,3 hr,−1.07
same,Fold-change (tipifarnib/LPS vs LPS) IL1B,3 hr,1.32
same,Fold-change (tipifarnib/LPS vs LPS) IL1RN,3 hr,−1.15
same,Fold-change (tipifarnib/LPS vs LPS) IL8,3 hr,−1.23
same,Fold-change (tipifarnib/LPS vs LPS) KCNK17,3 hr,−1.15
same,Fold-change (tipifarnib/LPS vs LPS) LAP3,3 hr,−1.07
same,Fold-change (tipifarnib/LPS vs LPS) LGR7,3 hr,−1.15
same,Fold-change (tipifarnib/LPS vs LPS) LY6E,3 hr,−1.15
same,Fold-change (tipifarnib/LPS vs LPS) MMP9,3 hr,−1.07
same,Fold-change (tipifarnib/LPS vs LPS) MX1,3 hr,−1.07
same,Fold-change (tipifarnib/LPS vs LPS) MYD88,3 hr,−1.15
same,Fold-change (tipifarnib/LPS vs LPS) NEXN,3 hr,1.00
same,Fold-change (tipifarnib/LPS vs LPS) NFKB2,3 hr,1.23
same,Fold-change (tipifarnib/LPS vs LPS) PLAUR,3 hr,−1.23
same,Fold-change (tipifarnib/LPS vs LPS) PTX3,3 hr,−1.15
same,Fold-change (tipifarnib/LPS vs LPS) S100A9,3 hr,−1.15
same,Fold-change (tipifarnib/LPS vs LPS) STAT1,3 hr,−1.32
